Measurements: patent publication US3974165A, “Hypotensive agents” (Bristol-Myers Company, priority 1974, dated 1976)
Values after ≈ are worked out from the molar mass of the structure shown.

Tests used:
[1] = test system: adenosine diphosphate (ADP) induced platelet aggregation; experiment: In vitro inhibition of ADP induced platelet aggregation (aggregometer method of Born); type: cell-based; settings: Oryctolagus cuniculus; rabbit platelet rich plasma, ADP 0.5 mcg./ml.
Procedure: (§1) The aggregometer method of Born (1), as modified by Mustard et al (2) was used to assess the in vitro activity of the various compounds as to inhibition of adenosine diphosphate (ADP) and collagen induced platelet aggregation. Platelet rich plasma was separated by centrifugation from citrated (3.8 per cent) rabbit blood. ADP in final concentration of 0.5 mcg./ml. or 0.05 ml. of a collagen suspension prepared according to the method described by Evans et al. (3) was used to induce aggregation. The various compounds tested were dissolved in dimethylsulfoxide (DMSO) so that 5 mcl. added to the platelet rich plasma would yield the desired test concentration. Vehicle control trials were done and compared with aggregation induced in platelet rich plasma containing various concentrations of the test compounds. Dose response curves were obtained and Effective Concentration (EC50) values calculated.
(§2) 1. Born, G.V.R J. Physiol., London, 162, 67P (1962).
(§3) 2. mustard, J. F., Hegardt, B. Rowsell, H. C. and MacMillan, R. L., J. Lab. Clin. Med. 64, 548 (1964).
(§4) 3. Evans, G. Marian, M. C., Packham, M. A., Nishizawa, E. E., Mustard, J. F. and Murphy, E. A., J. Exp. Med., 128, 877 (1968).

[2] = test system: collagen induced platelet aggregation; experiment: In vitro inhibition of collagen induced platelet aggregation (aggregometer method of Born); type: cell-based; settings: Oryctolagus cuniculus; rabbit platelet rich plasma, 0.05 ml. collagen suspension
Procedure: as §1, §2, §3, §4

[3] = as compared to compound 1; Jen et al, J. Med. Chem. 16, 633 (1973); cited from earlier work
conscious rats = experiment: Effect of compounds on mean aortic pressure and heart rate in conscious rats (oral); type: in vivo, genetically hypertensive rats; settings: for Heart Rate / mean aortic pressure / Heart Rate % Change / Aortic Pressure % Change: 50 mg/kg po; for Aortic Pressure % Change: - denotes a decrease in b.p.
Procedure: The blood pressure of unanesthetized rats and dogs was measured directly by means of a transducer attached to an intra-arterial cannula and in anesthetized dogs by a mercury manometer attached to a carotid cannula.
The compounds of the instant invention were tested as the hydrochloride salts by the above method in genetically hypertensive rats in doses of 50 mg./kg. orally.
Compounds were studied by oral administration in conscious rats for their effects on aortic pressure and cardiac rate.

[4] = oral administration, conscious rats

Row | EC50 [1] [µg/mL] | EC50 [2] [µg/mL] | SMILES | Heart Rate (conscious rats; N=3, 0 min (baseline)) [Beats/Min] | mean aortic pressure (conscious rats; N=3, 0 min (baseline)) [mmHg] | Heart Rate (conscious rats; N=3, 30 min) [Beats/Min] | Heart Rate % Change (conscious rats; N=3, 30 min) [%] | mean aortic pressure (conscious rats; N=3, 30 min) [mmHg] | Aortic Pressure % Change (conscious rats; N=3, 30 min) [%] | Heart Rate (conscious rats; N=3, 90 min) [Beats/Min] | Heart Rate % Change (conscious rats; N=3, 90 min) [%] | mean aortic pressure (conscious rats; N=3, 90 min) [mmHg] | Aortic Pressure % Change (conscious rats; N=3, 90 min) [%] | Heart Rate (conscious rats; N=3, 150 min) [Beats/Min] | Heart Rate % Change (conscious rats; N=3, 150 min) [%] | mean aortic pressure (conscious rats; N=3, 150 min) [mmHg] | Aortic Pressure % Change (conscious rats; N=3, 150 min) [%] | Heart Rate (conscious rats; N=3, 300 min) [Beats/Min] | Heart Rate % Change (conscious rats; N=3, 300 min) [%] | also measured
1 | 22 (≈ 118 µM) | 27 (≈ 145 µM) | O=C1CC2Cc3ccccc3N=C2N1 (centres unmarked) [drawing 3] | – | – | – | – | – | – | – | – | – | – | – | – | – | – | – | – | –
2 | – | – | c1ccc2c(c1)CC1CCNC1=N2 (centres unmarked) [compound 2] | – | – | – | – | – | – | – | – | – | – | – | – | – | – | – | – | antihypertensive activity (in words) [3]: low degree of antihypertensive activity
3 | – | – | O=C1CC2Cc3ccccc3N=C2N1 (centres unmarked) [BL-4369] | 350±25 | 114±2 | 420±19 | 21±9 | 91±6 | -20±6 | 414±26 | 19±9 | 110±3 | -3±4 | 370±31 | 6±8 | 101±3 | -11±2 | 382±25 | 10±7 | mean aortic pressure (conscious rats; N=3, 300 min): 109±8 mmHg
4 | – | – | Cc1cccc2c1CC1CC(=O)NC1=N2 (centres unmarked) [BL-4412] | 352±21 | 126±2 | 464±24 | 34±15 | 86±1 | -32 | 432±12 | 24±10 | 86±2 | -31.2 | 422±12 | 21±11 | 89±4 | -29 | 422±19 | 1±12 | Aortic Pressure % Change (conscious rats; N=3, 300 min): -25%; effect on aortic pressure (in words) (conscious rats; [4]): appreciable fall in aortic pressure; effect on heart rate (in words) (conscious rats; [4]): not out of proportion to the fall in aortic pressure
5 | 1.5 (≈ 7.49 µM) | 0.3 (≈ 1.5 µM) | Cc1cccc2c1CC1CC(=O)NC1=N2 (centres unmarked) [drawing 4] | – | – | – | – | – | – | – | – | – | – | – | – | – | – | – | – | –
